Values joined by “and” are separate entries in the source; they are usually repeats but may differ in a detail not shown here. Identical values can stand only once. Like-named read-outs stand apart in the source and are kept apart here.
Columns and labels:
[1] = system: acetylation of histone H4 in NCI-H460 NSCLC cells; assay: Western blot with densitometry, histone H4 acetylation; type: cell-based, human; settings: 5 µM; NCI-H460; vehicle 0,0274
Procedure: (§1) For assessing the in vitro effect of ST7612AA1 on acetylation of α-tubulin and histones, NSCLC cells were treated with the test compound at various concentrations (dose-response curve). SAHA 5 μM was used as reference inhibitor. Protein extraction, separation and immunoblotting were performed as previously described. Immunoreactive bands were finally subjected to densitometry analysis by a phosphoimaging system (STORM, Molecular Dynamics), and then the IC50 values were calculated by the “ALLFIT” computer program. The antibodies used are listed in Supplementary Table 2.

[2] = system: acetylation of alpha-tubulin in NCI-H460 NSCLC cells; assay: Western blot with densitometry, tubulin acetylation; type: cell-based, human; settings: 5 µM; NCI-H460; vehicle 0,341
Procedure: as §1

[3] = PK sampling and analysis after a single oral dose of ST7612AA1 (plasma, LC-MS/MS); type: in vivo, CD1 mice; settings: ST7464AA1 in plasma, single oral dose of 120 mg/kg of ST7612AA1
Procedure: CD1 nude mice were used. Male mice were treated with a single dose of ST7612AA1 at 120 mg/10 mL/kg p.o., using 5% Solutol HS 15 in water for injection as vehicle. Blood samples were collected at 0.25, 0.5, 1, 2, 4 and 6 h post treatment from 5 animals per time point. Levels of ST7612AA1 and ST7464AA1 were determined in plasma by quantitative LC-MS/MS having a limit of quantification of 25 ng/mL. The PK parameters Cmax (maximum plasma concentration), Tmax (time of maximum plasma concentration), Clast (last quantifiable concentration), Tlast (time of last quantifiable plasma concentration), AUClast (area under the concentration vs time curve from 0 to Tlast), AUCINF (area under the concentration vs time curve from 0 to infinity), T1/2 (terminal half-life), CL/F (apparent systemic clearance) and Vz/F (apparent terminal volume of distribution) were derived from the analyte plasma concentration vs time data according to a model independent approach for sparse data sampling by using Phoenix WinNonlin® ver. 6.3 software (Pharsight, Cetara).

HDAC1 = system: HDAC1; set-up: method as in PMID 25233084; settings: cited from earlier work
HDAC2 = system: HDAC2; set-up: method as in PMID 25233084; settings: cited from earlier work
HDAC3 = system: HDAC3; set-up: method as in PMID 25233084; settings: mean of IC50 on HDAC3 and 6; cited from earlier work
HDAC6 = system: HDAC6; set-up: method as in PMID 25233084; settings: cited from earlier work
HDAC8 = system: HDAC8; set-up: method as in PMID 25233084; settings: cited from earlier work
[4] = set-up: method as in PMID 25233084; settings: mean of IC50 on HDAC1, 10 and 11; cited from earlier work
HDAC11 = system: HDAC11; set-up: method as in PMID 25233084; settings: mean of IC50 on HDAC1, 10 and 11; cited from earlier work
[5] = male, CD1 nude, mouse, mean ± SEM

Row | Compound | Acetyl H4/H4 [1] | Acetyl tub./tubulin [2] | Tlast [3] [h] | AUC(0-inf) ([3]; male, CD1 nude, mouse) [ng·h/mL] | CL/F ([3]; male, CD1 nude, mouse) [mL/min/kg] | Tmax ([3]; male, CD1 nude, mouse) [h] | half-life ([3]; male, CD1 nude, mouse) [h] | AUC(0-t) [3, 5] [ng·h/mL] | Cmax [3, 5] [ng/mL] | concentration at 6 h ([3]; male, CD1 nude, mouse, read-out: Clast) [ng/mL] | Vd/F ([3]; male, CD1 nude, mouse, read-out: Vz/F) [L/kg] | IC50 (HDAC1; HDAC1) [nM] | IC50 (HDAC1; mean of IC50 on HDAC1, 10 and 11) [nM] | IC50 (HDAC2) | IC50 (HDAC3) [nM] | IC50 (HDAC6; HDAC6) [nM] | IC50 (HDAC6; mean of IC50 on HDAC3 and 6) [nM] | IC50 (HDAC8) [nM] | IC50 [4] [nM] | IC50 (HDAC11) [nM]
1 | O=C(CCCCCCC(=O)Nc1ccccc1)NO [SAHA, suberoylanilide hydroxamic acid, reference compound] | 0,1537 | 2,617 | – | – | – | – | – | – | – | – | – | – | – | – | – | – | – | – | – | –
2 | O=C1CC[C@H](C(=O)N[C@@H](CCCCCS)C(=O)Nc2ccccc2)N1 [ST7464AA1] | – | – | 6.0 | 5510 | 363 | 0.5 | 3.8 | 3750 ± 299 | 1580 ± 478 | 303 | 119 | 12.7 | 13 | 77.7 nM and 78 nM | 4 | 3.18 | 4 | 281 | 13 | 13

Source: article PMC4467398, “Preclinical antitumor activity of ST7612AA1: a new oral thiol-based histone deacetylase (HDAC) inhibitor” (Oncotarget, 2014)
